Measured values published in ChEMBL document CHEMBL1149697, “Identification of dissociated non-steroidal glucocorticoid receptor agonists” (Bioorg Med Chem Lett, 2007).

Columns and labels:
HFF [1] = experiment: Antiinflammatory activity assessed as inhibition of IL6 production in HFF cells by transrepression assay relative to dexamethasone; type: functional, Homo sapiens
Progesterone receptor = biological target: T1, Progesterone receptor (Homo sapiens, UniProt P06401); experiment: Displacement of TAMRA labeled mifepristone at human progesterone receptor in insect cell
T1 sequence (P06401 whole entry): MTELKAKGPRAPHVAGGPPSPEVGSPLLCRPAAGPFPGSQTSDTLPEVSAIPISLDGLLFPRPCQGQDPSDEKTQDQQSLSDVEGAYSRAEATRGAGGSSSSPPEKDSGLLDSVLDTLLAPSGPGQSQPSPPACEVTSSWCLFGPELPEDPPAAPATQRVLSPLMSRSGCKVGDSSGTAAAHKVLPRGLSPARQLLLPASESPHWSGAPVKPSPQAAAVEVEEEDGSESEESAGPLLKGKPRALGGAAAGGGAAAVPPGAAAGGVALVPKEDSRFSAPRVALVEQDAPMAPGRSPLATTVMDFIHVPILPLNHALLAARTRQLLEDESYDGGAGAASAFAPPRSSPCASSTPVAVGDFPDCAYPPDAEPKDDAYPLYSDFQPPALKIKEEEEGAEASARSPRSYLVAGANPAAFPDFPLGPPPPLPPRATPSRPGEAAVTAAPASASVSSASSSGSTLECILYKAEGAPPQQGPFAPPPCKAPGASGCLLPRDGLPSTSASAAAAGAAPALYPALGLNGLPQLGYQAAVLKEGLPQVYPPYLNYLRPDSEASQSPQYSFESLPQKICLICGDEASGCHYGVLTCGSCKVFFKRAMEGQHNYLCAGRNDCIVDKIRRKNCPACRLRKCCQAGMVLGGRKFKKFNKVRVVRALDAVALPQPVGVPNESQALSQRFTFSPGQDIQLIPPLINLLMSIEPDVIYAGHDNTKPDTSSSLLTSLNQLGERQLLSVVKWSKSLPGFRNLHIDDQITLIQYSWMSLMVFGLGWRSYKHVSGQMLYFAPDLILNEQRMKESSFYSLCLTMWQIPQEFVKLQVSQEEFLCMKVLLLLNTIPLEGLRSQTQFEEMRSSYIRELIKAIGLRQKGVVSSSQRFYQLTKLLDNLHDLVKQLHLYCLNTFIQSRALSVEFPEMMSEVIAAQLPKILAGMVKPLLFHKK

HFF [2] = experiment: Antiinflammatory activity assessed as upregulation of aromatase in HFF cells by transactivation assay; type: functional, cell-based; conditions: Homo sapiens
HFF [3] = experiment: Antiinflammatory activity assessed as upregulation of aromatase in HFF cells by transactivation assay relative to dexamethasone; type: functional, Homo sapiens; design: concentration or dose not given beside the values
Glucocorticoid receptor = biological target: T2, Glucocorticoid receptor (Homo sapiens, UniProt P04150)
T2 sequence (P04150 whole entry): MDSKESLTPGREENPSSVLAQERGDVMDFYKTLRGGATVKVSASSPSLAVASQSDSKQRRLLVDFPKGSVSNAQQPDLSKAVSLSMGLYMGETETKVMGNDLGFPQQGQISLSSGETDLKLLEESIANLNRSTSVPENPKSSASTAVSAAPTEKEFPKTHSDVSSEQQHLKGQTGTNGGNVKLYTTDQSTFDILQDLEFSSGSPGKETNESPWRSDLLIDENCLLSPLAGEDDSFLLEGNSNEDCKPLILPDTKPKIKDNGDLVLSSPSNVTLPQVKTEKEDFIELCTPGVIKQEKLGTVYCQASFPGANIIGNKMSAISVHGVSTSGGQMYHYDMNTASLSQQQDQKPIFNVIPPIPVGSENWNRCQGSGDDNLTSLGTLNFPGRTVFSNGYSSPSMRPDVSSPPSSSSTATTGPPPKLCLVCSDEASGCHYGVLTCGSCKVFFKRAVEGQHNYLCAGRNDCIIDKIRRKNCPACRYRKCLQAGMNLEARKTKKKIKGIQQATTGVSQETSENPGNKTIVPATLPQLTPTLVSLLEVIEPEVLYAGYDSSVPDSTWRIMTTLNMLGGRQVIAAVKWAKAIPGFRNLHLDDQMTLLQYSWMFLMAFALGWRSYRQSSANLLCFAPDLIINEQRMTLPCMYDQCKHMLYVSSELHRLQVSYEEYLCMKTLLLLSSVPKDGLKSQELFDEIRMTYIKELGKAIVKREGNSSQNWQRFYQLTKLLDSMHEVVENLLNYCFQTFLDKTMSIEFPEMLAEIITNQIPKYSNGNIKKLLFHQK

HFF [4] = experiment: Antiinflammatory activity assessed as inhibition of IL1 stimulated IL6 production in HFF cells by transrepression assay; type: functional, cell-based; conditions: Homo sapiens
Homo sapiens = species on record: Homo sapiens; experiment: Selectivity ratio of human GR over human PR
[5] = biological target: T3, Mineralocorticoid receptor (Homo sapiens, UniProt P08235); experiment: Displacement of TAMRA labeled dexamethasone at human mineralocorticoid receptor in insect cell
T3 sequence (P08235 whole entry): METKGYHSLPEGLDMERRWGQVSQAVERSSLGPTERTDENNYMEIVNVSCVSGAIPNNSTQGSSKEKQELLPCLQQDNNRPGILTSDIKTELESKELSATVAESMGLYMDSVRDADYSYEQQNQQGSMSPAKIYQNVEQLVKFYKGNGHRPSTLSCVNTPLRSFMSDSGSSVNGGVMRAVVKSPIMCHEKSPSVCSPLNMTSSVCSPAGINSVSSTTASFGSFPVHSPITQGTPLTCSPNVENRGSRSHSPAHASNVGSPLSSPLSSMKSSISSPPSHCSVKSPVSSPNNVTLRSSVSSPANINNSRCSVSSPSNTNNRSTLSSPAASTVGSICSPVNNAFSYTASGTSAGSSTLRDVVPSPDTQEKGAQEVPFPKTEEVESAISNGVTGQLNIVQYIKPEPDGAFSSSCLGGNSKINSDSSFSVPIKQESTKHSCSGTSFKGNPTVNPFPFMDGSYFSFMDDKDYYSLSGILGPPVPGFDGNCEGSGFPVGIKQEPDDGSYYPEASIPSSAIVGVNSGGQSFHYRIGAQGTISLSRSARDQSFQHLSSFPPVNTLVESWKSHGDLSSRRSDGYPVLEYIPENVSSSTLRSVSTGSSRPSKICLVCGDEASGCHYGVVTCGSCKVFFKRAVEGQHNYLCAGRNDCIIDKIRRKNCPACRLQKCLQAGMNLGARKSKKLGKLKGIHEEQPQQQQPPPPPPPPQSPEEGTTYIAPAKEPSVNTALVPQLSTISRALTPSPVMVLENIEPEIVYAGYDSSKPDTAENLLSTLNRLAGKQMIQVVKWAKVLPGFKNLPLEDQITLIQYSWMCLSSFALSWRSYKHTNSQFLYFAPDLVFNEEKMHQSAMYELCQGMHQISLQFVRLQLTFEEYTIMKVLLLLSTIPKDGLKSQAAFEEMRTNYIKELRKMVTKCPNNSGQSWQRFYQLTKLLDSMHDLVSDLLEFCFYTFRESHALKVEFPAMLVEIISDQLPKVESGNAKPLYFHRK

Compound | Efficacy (HFF [1]) [%] | IC50 (Progesterone receptor) [nM] | EC50 (HFF [2]) [nM] | Activity (HFF [3]) [%] | IC50 (Glucocorticoid receptor) [nM] | EC50 (HFF [4]) [nM] | Ratio IC50 (Homo sapiens) | IC50 [5] [nM]
COc1ccc(F)cc1C(C)(C)CC(O)(Cc1cc(C)c(C#N)c(C)c1)C(F)(F)F (stereo not drawn) | 95 | 390 | 8 | 115 | 11 | 4 | 35 | 300
COc1ccc(F)cc1C(C)(C)CC(O)(Cc1cc(C)cc(C)c1C#N)C(F)(F)F (stereo not drawn) | 83 | 1800 | 250 | 75 | 8 | 40 | 225 | 250
COc1ccc(F)cc1C(C)(C)CC(O)(Cc1cc(C)cc(Cl)c1)C(F)(F)F (stereo not drawn) | 79 | > 2000 | 245 | 80 | 46 | 125 | – | 940
